Patent US20260022142A1, “MACROCYCLIC IMMUNOMODULATORS” (Bristol-Myers Squibb Company, priority 2022, published 2026)
Bridge positions count the residues as written; N and C are the ends. Square brackets hold non-standard residues; d marks the D form. Peptide text beside a SMILES is read from it. * marks the point of attachment. Phe(4-COOH) = N[C@@H](Cc1ccc(C(=O)O)cc1)C(=O)O; Bip = N[C@@H](Cc1ccc(-c2ccccc2)cc1)C(=O)O; Phe(3-Me) = Cc1cccc(C[C@H](N)C(=O)O)c1; 4Pal = N[C@@H](Cc1ccncc1)C(=O)O; Cha = N[C@@H](CC1CCCCC1)C(=O)O; Carboxymethyl = O=C(O)C*; Orn = NCCC[C@H](N)C(=O)O; Pra = C#CC[C@H](N)C(=O)O; Aun = NCCCCCCCCCCC(=O)O; Dab = NCC[C@H](N)C(=O)O; Dap = NC[C@H](N)C(=O)O; AEEA = NCCOCCOCC(=O)O

Biological target: T1, PD-1/PD-L1 interaction (PE-labeled human PD-L1-Ig binding to Jurkat cell line over-expressing human PD-1) (Homo sapiens, UniProt Q15116)
T1 construct: expressed in transfected cells; host or cells: Jurkat
T1 sequence (Q15116 25-288): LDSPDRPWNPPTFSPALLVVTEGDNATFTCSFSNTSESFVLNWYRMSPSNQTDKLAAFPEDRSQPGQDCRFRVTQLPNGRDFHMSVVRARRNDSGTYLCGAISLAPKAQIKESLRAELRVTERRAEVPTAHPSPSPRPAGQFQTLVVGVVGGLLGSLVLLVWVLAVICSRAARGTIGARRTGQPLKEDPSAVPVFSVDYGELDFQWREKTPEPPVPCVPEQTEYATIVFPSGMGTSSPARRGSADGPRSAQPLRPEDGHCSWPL
Test: Jurkat-PD-1 Cell Binding High-Content Screening Assay (CBA)
Type: cell-based
Conditions: Jurkat cell line over-expressing human PD-1; PE-labeled PD-L1-Ig 20 nM final; read-out: Jurkat hPD1-PDL1 IC50
Method in brief: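 Jurkat cells stably over-expressing human PD-1 were seeded in DMEM with 10% fetal calf serum and pre-incubated with compound for 2 h at 37° C. PE-labeled human PD-L1-Ig was then added at 20 nM final for 1 hour, after which cells were fixed with paraformaldehyde, Hoechst-stained and imaged by high-content microscopy.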

IC50 | SMILES
0.0137 µM | C#CC[C@H](NC(=O)COCCOCCNC(=O)[C@H](CCN)NC(=O)[C@@H]1CSCC(=O)N[C@@H](Cc2ccncc2)C(=O)N[C@@H](Cc2ccc(OCC(=O)O)cc2)C(=O)N[C@@H](CC(=O)O)C(=O)N[C@@H](Cc2c[nH]c3ccccc23)C(=O)N[C@@H](C(C)C)C(=O)N[C@@H](Cc2ccc(-c3ccccc3)cc2)C(=O)N[C@@H]([C@@H](C)CC)C(=O)N[C@@H](CCCN)C(=O)N[C@H](CC(C)C)C(=O)N[C@@H](CCN)C(=O)N[C@@H](CC(C)C)C(=O)N[C@@H](C(C)C)C(=O)N[C@@H]([C@@H](C)O)C(=O)N1)C(=O)N[C@@H](CCCN)C(=O)NCCCCCCCCCCC(=O)O [Compound 1195] ({CH2CO}-[4Pal]Y(Carboxymethyl)DWV[Bip]I[Orn][dL][Dab]LVTC[Dab][AEEA][Pra][Orn][Aun]-OH; thioether N-14)
0.0096 µM | C#CC[C@H](NC(=O)COCCOCCNC(=O)[C@H](CCN)NC(=O)[C@@H]1CSCC(=O)N[C@@H](Cc2ccncc2)C(=O)N[C@@H](Cc2ccc(OCC(=O)O)cc2)C(=O)N[C@@H](CC(=O)O)C(=O)N[C@@H](Cc2c[nH]c3ccccc23)C(=O)N[C@@H](C(C)C)C(=O)N[C@@H](Cc2ccc(-c3ccccc3)cc2)C(=O)N[C@@H]([C@@H](C)CC)C(=O)N[C@@H](CCCN)C(=O)N[C@H](CC(C)C)C(=O)N[C@@H](CCN)C(=O)N[C@@H](CC(C)C)C(=O)N[C@@H](C(C)C)C(=O)N[C@@H]([C@@H](C)O)C(=O)N1)C(=O)N[C@@H](CCCCN)C(=O)NCCCCCCCCCCC(=O)O [Compound 1196] ({CH2CO}-[4Pal]Y(Carboxymethyl)DWV[Bip]I[Orn][dL][Dab]LVTC[Dab][AEEA][Pra]K[Aun]-OH; thioether N-14)
0.0148 µM | C#CC[C@H](NC(=O)COCCOCCNC(=O)[C@H](CCN)NC(=O)[C@@H]1CSCC(=O)N[C@@H](Cc2ccncc2)C(=O)N[C@@H](Cc2ccc(OCC(=O)O)cc2)C(=O)N[C@@H](CC(=O)O)C(=O)N[C@@H](Cc2c[nH]c3ccccc23)C(=O)N[C@@H](C(C)C)C(=O)N[C@@H](Cc2ccc(-c3ccccc3)cc2)C(=O)N[C@@H]([C@@H](C)CC)C(=O)N[C@@H](CCCN)C(=O)N[C@H](CC(C)C)C(=O)N[C@@H](CCN)C(=O)N[C@@H](CC(C)C)C(=O)N[C@@H](C(C)C)C(=O)N[C@@H]([C@@H](C)O)C(=O)N1)C(=O)N[C@@H](CCCNC(=N)N)C(=O)NCCCCCCCCCCC(=O)O [Compound 1197] ({CH2CO}-[4Pal]Y(Carboxymethyl)DWV[Bip]I[Orn][dL][Dab]LVTC[Dab][AEEA][Pra]R[Aun]-OH; thioether N-14)
0.0151 µM | C#CC[C@H](NC(=O)COCCOCCNC(=O)[C@H](CCN)NC(=O)[C@@H]1CSCC(=O)N[C@@H](Cc2ccncc2)C(=O)N[C@@H](Cc2ccc(OCC(=O)O)cc2)C(=O)N[C@@H](CC(=O)O)C(=O)N[C@@H](Cc2c[nH]c3ccccc23)C(=O)N[C@@H](C(C)C)C(=O)N[C@@H](Cc2ccc(-c3ccccc3)cc2)C(=O)N[C@@H]([C@@H](C)CC)C(=O)N[C@@H](CCCN)C(=O)N[C@H](CC(C)C)C(=O)N[C@@H](CCN)C(=O)N[C@@H](CC(C)C)C(=O)N[C@@H](C(C)C)C(=O)N[C@@H]([C@@H](C)O)C(=O)N1)C(=O)N[C@@H](Cc1c[nH]cn1)C(=O)NCCCCCCCCCCC(=O)O [Compound 1198] ({CH2CO}-[4Pal]Y(Carboxymethyl)DWV[Bip]I[Orn][dL][Dab]LVTC[Dab][AEEA][Pra]H[Aun]-OH; thioether N-14)
0.0133 µM | C#CC[C@H](NC(=O)COCCOCCNC(=O)[C@H](CCCN)NC(=O)[C@@H]1CSCC(=O)N[C@@H](Cc2ccncc2)C(=O)N[C@@H](Cc2ccc(OCC(=O)O)cc2)C(=O)N[C@@H](CC(=O)O)C(=O)N[C@@H](Cc2c[nH]c3ccccc23)C(=O)N[C@@H](C(C)C)C(=O)N[C@@H](Cc2ccc(-c3ccccc3)cc2)C(=O)N[C@@H]([C@@H](C)CC)C(=O)N[C@@H](CCCN)C(=O)N[C@H](CC(C)C)C(=O)N[C@@H](CCN)C(=O)N[C@@H](CC(C)C)C(=O)N[C@@H](C(C)C)C(=O)N[C@@H]([C@@H](C)O)C(=O)N1)C(=O)N[C@@H](CN)C(=O)NCCCCCCCCCCC(=O)O [Compound 1199] ({CH2CO}-[4Pal]Y(Carboxymethyl)DWV[Bip]I[Orn][dL][Dab]LVTC[Orn][AEEA][Pra][Dap][Aun]-OH; thioether N-14)
0.0156 µM | C#CC[C@H](NC(=O)COCCOCCNC(=O)[C@H](CCCN)NC(=O)[C@@H]1CSCC(=O)N[C@@H](Cc2ccncc2)C(=O)N[C@@H](Cc2ccc(OCC(=O)O)cc2)C(=O)N[C@@H](CC(=O)O)C(=O)N[C@@H](Cc2c[nH]c3ccccc23)C(=O)N[C@@H](C(C)C)C(=O)N[C@@H](Cc2ccc(-c3ccccc3)cc2)C(=O)N[C@@H]([C@@H](C)CC)C(=O)N[C@@H](CCCN)C(=O)N[C@H](CC(C)C)C(=O)N[C@@H](CCN)C(=O)N[C@@H](CC(C)C)C(=O)N[C@@H](C(C)C)C(=O)N[C@@H]([C@@H](C)O)C(=O)N1)C(=O)N[C@@H](CCN)C(=O)NCCCCCCCCCCC(=O)O [Compound 1200] ({CH2CO}-[4Pal]Y(Carboxymethyl)DWV[Bip]I[Orn][dL][Dab]LVTC[Orn][AEEA][Pra][Dab][Aun]-OH; thioether N-14)
0.0076 µM | C#CC[C@H](NC(=O)COCCOCCNC(=O)[C@H](CCCN)NC(=O)[C@@H]1CSCC(=O)N[C@@H](Cc2ccncc2)C(=O)N[C@@H](Cc2ccc(OCC(=O)O)cc2)C(=O)N[C@@H](CC(=O)O)C(=O)N[C@@H](Cc2c[nH]c3ccccc23)C(=O)N[C@@H](C(C)C)C(=O)N[C@@H](Cc2ccc(-c3ccccc3)cc2)C(=O)N[C@@H]([C@@H](C)CC)C(=O)N[C@@H](CCCN)C(=O)N[C@H](CC(C)C)C(=O)N[C@@H](CCN)C(=O)N[C@@H](CC(C)C)C(=O)N[C@@H](C(C)C)C(=O)N[C@@H]([C@@H](C)O)C(=O)N1)C(=O)N[C@@H](CCCN)C(=O)NCCCCCCCCCCC(=O)O [Compound 1201] ({CH2CO}-[4Pal]Y(Carboxymethyl)DWV[Bip]I[Orn][dL][Dab]LVTC[Orn][AEEA][Pra][Orn][Aun]-OH; thioether N-14)

Second part, the compound before the results:

SMILES | IC50
CC[C@H](C)[C@@H]1NC(=O)[C@H](Cc2ccc(-c3ccccc3)cc2)NC(=O)[C@H](C(C)C)NC(=O)[C@H](Cc2cccc(C)c2)NC(=O)[C@H](CC(=O)O)NC(=O)[C@H](Cc2ccc(C(=O)O)cc2)NC(=O)[C@H](Cc2ccncc2)NC(=O)CSC[C@@H](C(=O)NCCOCCOCC(=O)N[C@@H](CCCN)C(=O)NCCCCCCCCCCC(=O)O)NC(=O)[C@H]([C@@H](C)O)NC(=O)[C@H](C(C)C)NC(=O)[C@H](CC2CCCCC2)NC(=O)[C@H](CCN)NC(=O)[C@@H](CC(C)C)NC(=O)[C@H](CCCN)NC1=O [Compound 1190] ({CH2CO}-[4Pal][Phe(4-COOH)]D[Phe(3-Me)]V[Bip]I[Orn][dL][Dab][Cha]VTC[AEEA][Orn][Aun]-OH; thioether N-14) | 0.0248 µM
CC[C@H](C)[C@@H]1NC(=O)[C@H](Cc2ccc(-c3ccccc3)cc2)NC(=O)[C@H](C(C)C)NC(=O)[C@H](Cc2cccc(C)c2)NC(=O)[C@H](CC(=O)O)NC(=O)[C@H](Cc2ccc(C(=O)O)cc2)NC(=O)[C@H](Cc2ccncc2)NC(=O)CSC[C@@H](C(=O)NCCOCCOCC(=O)N[C@@H](CCCCN)C(=O)NCCCCCCCCCCC(=O)O)NC(=O)[C@H]([C@@H](C)O)NC(=O)[C@H](C(C)C)NC(=O)[C@H](CC2CCCCC2)NC(=O)[C@H](CCN)NC(=O)[C@@H](CC(C)C)NC(=O)[C@H](CCCN)NC1=O [Compound 1191] ({CH2CO}-[4Pal][Phe(4-COOH)]D[Phe(3-Me)]V[Bip]I[Orn][dL][Dab][Cha]VTC[AEEA]K[Aun]-OH; thioether N-14) | 0.0197 µM
CC[C@H](C)[C@@H]1NC(=O)[C@H](Cc2ccc(-c3ccccc3)cc2)NC(=O)[C@H](C(C)C)NC(=O)[C@H](Cc2cccc(C)c2)NC(=O)[C@H](CC(=O)O)NC(=O)[C@H](Cc2ccc(C(=O)O)cc2)NC(=O)[C@H](Cc2ccncc2)NC(=O)CSC[C@@H](C(=O)NCCOCCOCC(=O)N[C@@H](CCCNC(=N)N)C(=O)NCCCCCCCCCCC(=O)O)NC(=O)[C@H]([C@@H](C)O)NC(=O)[C@H](C(C)C)NC(=O)[C@H](CC2CCCCC2)NC(=O)[C@H](CCN)NC(=O)[C@@H](CC(C)C)NC(=O)[C@H](CCCN)NC1=O [Compound 1192] ({CH2CO}-[4Pal][Phe(4-COOH)]D[Phe(3-Me)]V[Bip]I[Orn][dL][Dab][Cha]VTC[AEEA]R[Aun]-OH; thioether N-14) | 0.0455 µM
C#CC[C@H](NC(=O)COCCOCCNC(=O)[C@H](CCN)NC(=O)[C@@H]1CSCC(=O)N[C@@H](Cc2ccncc2)C(=O)N[C@@H](Cc2ccc(OCC(=O)O)cc2)C(=O)N[C@@H](CC(=O)O)C(=O)N[C@@H](Cc2c[nH]c3ccccc23)C(=O)N[C@@H](C(C)C)C(=O)N[C@@H](Cc2ccc(-c3ccccc3)cc2)C(=O)N[C@@H]([C@@H](C)CC)C(=O)N[C@@H](CCCN)C(=O)N[C@H](CC(C)C)C(=O)N[C@@H](CCN)C(=O)N[C@@H](CC(C)C)C(=O)N[C@@H](C(C)C)C(=O)N[C@@H]([C@@H](C)O)C(=O)N1)C(=O)N[C@@H](CN)C(=O)NCCCCCCCCCCC(=O)O [Compound 1193] ({CH2CO}-[4Pal]Y(Carboxymethyl)DWV[Bip]I[Orn][dL][Dab]LVTC[Dab][AEEA][Pra][Dap][Aun]-OH; thioether N-14) | 0.0103 µM
C#CC[C@H](NC(=O)COCCOCCNC(=O)[C@H](CCN)NC(=O)[C@@H]1CSCC(=O)N[C@@H](Cc2ccncc2)C(=O)N[C@@H](Cc2ccc(OCC(=O)O)cc2)C(=O)N[C@@H](CC(=O)O)C(=O)N[C@@H](Cc2c[nH]c3ccccc23)C(=O)N[C@@H](C(C)C)C(=O)N[C@@H](Cc2ccc(-c3ccccc3)cc2)C(=O)N[C@@H]([C@@H](C)CC)C(=O)N[C@@H](CCCN)C(=O)N[C@H](CC(C)C)C(=O)N[C@@H](CCN)C(=O)N[C@@H](CC(C)C)C(=O)N[C@@H](C(C)C)C(=O)N[C@@H]([C@@H](C)O)C(=O)N1)C(=O)N[C@@H](CCN)C(=O)NCCCCCCCCCCC(=O)O [Compound 1194] ({CH2CO}-[4Pal]Y(Carboxymethyl)DWV[Bip]I[Orn][dL][Dab]LVTC[Dab][AEEA][Pra][Dab][Aun]-OH; thioether N-14) | 0.0148 µM
